Data on 17 compounds can be found in US20260325533A1, “CDK INHIBITOR COMPOUNDS” (ALEKSIA THERAPEUTICS, INC., priority 2023, published 2026).

Each structure is given as a SMILES string. Where two headings read alike, the source gives them in different places.

What all share (type): biochemical
One experiment addresses CDK6/CCND1 (Homo sapiens, UniProt Q00534). In words: CDK6 homogeneous time-resolved fluorescence (HTRF) kinase assay. The note with it: CDK6/CCND. An outline of the steps: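 Recombinant CDK6/CCND1 (1 nM final) was preincubated with compound for 20 min at 23 °C in HEPES buffer with MgCl2, EGTA, DTT and Tween 20. Kinase reaction then ran 60 min at 23 °C with 1 mM ATP and 50 nM ULight-4E-BP1 (Thr37/46) peptide, and was stopped with EDTA.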

For another experiment, the target named is CDK1/CCNB1 (Homo sapiens, UniProt P06493). In words: CDK1 homogeneous time-resolved fluorescence (HTRF) kinase assay. The following applies: CDK1/CCNB. An outline of the steps:
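CDK1/CCNB1 0.5 nM + cpd, 20 min 23 °C; add 1 mM ATP, 50 nM ULight-4E-BP1 peptide, 60 min 23 °C; stop 10 mM EDTA; 2 nM Eu-Ab, 60 min; HTRF 665 nm. 11-pt half-log, top 10 μM typical; IC50.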

In the next experiment the target is CDK2/CCNE1 (Homo sapiens, UniProt P24941). The experiment can be described thus: CDK2 homogeneous time-resolved fluorescence (HTRF) kinase assay. The following applies: CDK2/CCNE. An outline of the steps: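 IC50 derived from 11-point, half-log dilutions (usually top 10 μM) of compound, 1% DMSO. Kinase (3 nM CDK2/CCNE1) was preincubated with compound 20 min, then phosphorylated 50 nM ULight-4E-BP1 peptide at 1 mM ATP for 60 min, 23 °C. Europium-antibody TR-FRET read after EDTA stop.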
For orientation: TR-FRET usually uses a lanthanide donor and a delayed reading to cut background.

For a further experiment, the target named is CDK4/CCND3 (Homo sapiens, UniProt P11802). In words: CDK4 homogeneous time-resolved fluorescence (HTRF) kinase assay. The following applies: CDK4/CCND. An outline of the steps:
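HTRF kinase assay, CDK4/CCND3 1.5 nM, ATP 1 mM, ULight-4E-BP1 peptide 50 nM, 23 °C, 60 min reaction after 20 min preincubation. Eu-anti-pThr37/46 antibody detection. 11-pt half-log curves from 10 μM → IC50.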

Setting [1] is: >250 nM marked x, read-out: CDK1/CCNB IC50 >250 nM.
[2] abbreviates: <25 nM, read-out: CDK6/CCND IC50 <25 nM.
Where [3] appears, read: 25-250 nM marked x, read-out: CDK1/CCNB IC50 25-250 nM.
Setting [4] is: <25 nM, read-out: CDK2/CCNE IC50 <25 nM.
Setting [5] is: <25 nM, read-out: CDK4/CCND IC50 <25 nM.
Setting [6] is: 25-250 nM marked x, read-out: CDK4/CCND IC50 25-250 nM.
[7] abbreviates: x = IC50 >250 nM, read-out: CDK6/CCND IC50 (>250 nM column).
Where [8] appears, read: x = IC50 25-250 nM, read-out: CDK1/CCNB IC50 (25-250 nM).
Setting [9] is: x = IC50 <25 nM, read-out: CDK2/CCNE IC50 (<25 nM).
[10] abbreviates: x = IC50 >250 nM, read-out: CDK4/CCND IC50 (>250 nM column).
Where [11] appears, read: x = IC50 >250 nM, read-out: CDK1/CCNB IC50 (>250 nM column).

Sequence of CDK6/CCND1 (Q00534 whole entry): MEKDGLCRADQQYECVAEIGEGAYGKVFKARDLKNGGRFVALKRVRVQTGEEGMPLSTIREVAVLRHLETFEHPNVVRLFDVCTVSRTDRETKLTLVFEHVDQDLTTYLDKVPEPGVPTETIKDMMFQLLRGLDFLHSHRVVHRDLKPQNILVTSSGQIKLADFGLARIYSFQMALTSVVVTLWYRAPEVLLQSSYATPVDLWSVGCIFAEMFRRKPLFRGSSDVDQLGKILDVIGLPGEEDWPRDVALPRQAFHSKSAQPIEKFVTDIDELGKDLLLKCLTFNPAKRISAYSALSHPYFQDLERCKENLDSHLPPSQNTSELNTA
Sequence of CDK6/CCND1 (P24385 whole entry partner): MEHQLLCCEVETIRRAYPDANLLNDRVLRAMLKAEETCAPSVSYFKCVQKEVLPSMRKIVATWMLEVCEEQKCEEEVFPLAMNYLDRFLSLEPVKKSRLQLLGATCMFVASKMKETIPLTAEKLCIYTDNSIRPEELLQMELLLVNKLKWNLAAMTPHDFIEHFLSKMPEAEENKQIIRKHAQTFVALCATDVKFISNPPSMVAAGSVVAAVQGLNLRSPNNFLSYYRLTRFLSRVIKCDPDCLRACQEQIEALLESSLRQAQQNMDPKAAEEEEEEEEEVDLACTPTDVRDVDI
Sequence of CDK1/CCNB1 (P06493 whole entry): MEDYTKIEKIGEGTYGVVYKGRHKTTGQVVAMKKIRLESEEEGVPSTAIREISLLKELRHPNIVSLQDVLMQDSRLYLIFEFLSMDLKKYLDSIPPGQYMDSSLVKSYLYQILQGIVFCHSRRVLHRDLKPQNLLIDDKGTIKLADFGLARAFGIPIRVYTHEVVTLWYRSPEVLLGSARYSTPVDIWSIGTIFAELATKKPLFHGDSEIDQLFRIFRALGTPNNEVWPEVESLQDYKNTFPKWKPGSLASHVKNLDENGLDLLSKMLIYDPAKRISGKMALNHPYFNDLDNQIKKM
Sequence of CDK1/CCNB1 (P14635 whole entry partner): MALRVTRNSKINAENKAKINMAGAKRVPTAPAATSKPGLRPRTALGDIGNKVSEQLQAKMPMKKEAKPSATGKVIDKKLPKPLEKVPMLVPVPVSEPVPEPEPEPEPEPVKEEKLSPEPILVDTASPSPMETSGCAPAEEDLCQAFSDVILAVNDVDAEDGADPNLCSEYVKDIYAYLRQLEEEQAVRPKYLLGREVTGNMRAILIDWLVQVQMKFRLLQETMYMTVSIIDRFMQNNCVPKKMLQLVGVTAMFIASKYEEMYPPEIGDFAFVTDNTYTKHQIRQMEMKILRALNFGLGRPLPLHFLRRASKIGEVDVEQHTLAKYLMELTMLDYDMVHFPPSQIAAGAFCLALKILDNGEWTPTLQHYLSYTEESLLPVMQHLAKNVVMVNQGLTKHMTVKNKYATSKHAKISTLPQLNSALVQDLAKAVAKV
Sequence of CDK4/CCND3 (P11802 whole entry): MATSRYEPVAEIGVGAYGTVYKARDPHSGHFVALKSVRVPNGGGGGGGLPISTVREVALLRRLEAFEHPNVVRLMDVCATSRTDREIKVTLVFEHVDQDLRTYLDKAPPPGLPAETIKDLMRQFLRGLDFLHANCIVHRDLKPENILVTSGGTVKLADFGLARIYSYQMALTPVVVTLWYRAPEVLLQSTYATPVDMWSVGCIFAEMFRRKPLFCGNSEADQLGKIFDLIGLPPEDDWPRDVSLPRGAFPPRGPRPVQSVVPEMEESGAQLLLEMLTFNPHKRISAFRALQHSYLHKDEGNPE
Sequence of CDK4/CCND3 (P30281 whole entry partner): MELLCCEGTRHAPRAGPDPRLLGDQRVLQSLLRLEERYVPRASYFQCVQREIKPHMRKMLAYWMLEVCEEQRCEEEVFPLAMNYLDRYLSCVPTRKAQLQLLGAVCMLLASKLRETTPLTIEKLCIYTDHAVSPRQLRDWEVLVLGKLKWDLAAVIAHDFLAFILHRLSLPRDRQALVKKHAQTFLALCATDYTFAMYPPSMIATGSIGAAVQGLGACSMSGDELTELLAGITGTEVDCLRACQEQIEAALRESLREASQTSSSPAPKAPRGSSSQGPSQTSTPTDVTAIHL

For `C=CS(=O)(=O)c1ccc(Nc2cc3c(N4CCC(C#N)CC4)nccc3cn2)cc1` [Example 15, 1-(7-((4-(vinylsulfonyl)phenyl)amino)-2,6-naphthyridin-1-yl)piperidine-4-carbonitrile], the IC50 is greater than 250 nM at CDK6/CCND1 (>250 nM marked x, read-out: CDK6/CCND IC50 >250 nM); greater than 250 nM at CDK1/CCNB1 (setting [1]); 25 to 250 nM on CDK2/CCNE1 (25-250 nM marked x, read-out: CDK2/CCNE IC50 25-250 nM); greater than 250 nM at CDK4/CCND3 (>250 nM marked x, read-out: CDK4/CCND IC50 >250 nM).
In the case of `CS(=O)(=O)N1CCC(Nc2cc3c(N4CCCCC4)nc(C=O)cc3cn2)CC1` [Example 18, 7-((1-(methylsulfonyl)piperidin-4-yl)amino)-1-(piperidin-1-yl)-2,6-naphthyridine-3-carbaldehyde], the IC50 on CDK6/CCND1 (setting [2]) is less than 25 nM; on CDK1/CCNB1 (setting [3]) it was 25 to 250 nM; at CDK2/CCNE1 (setting [4]), less than 25 nM; on CDK4/CCND3 (setting [5]) it was less than 25 nM.
In the case of `C=CS(=O)(=O)N1CCC(Nc2cc3c(C4=CCCCC4)nccc3cn2)CC1` [Example 20, 5-(cyclohex-1-en-1-yl)-N-(1-(vinylsulfonyl)piperidin-4-yl)-2,6-naphthyridin-3-amine], the IC50 is less than 25 nM on CDK6/CCND1 (setting [2]), 25 to 250 nM on CDK1/CCNB1 (setting [3]), less than 25 nM at CDK2/CCNE1 (setting [4]) and less than 25 nM on CDK4/CCND3 (setting [5]).
Turning to `CS(=O)(=O)N1CCC(Nc2cc3c(C4CCCCC4)nccc3cn2)CC1` [Example 21, 5-cyclohexyl-N-(1-(methylsulfonyl)piperidin-4-yl)-2,6-naphthyridin-3-amine], the IC50 is less than 25 nM at CDK6/CCND1 (setting [2]), 25 to 250 nM at CDK1/CCNB1 (setting [3]), less than 25 nM at CDK2/CCNE1 (setting [4]) and less than 25 nM on CDK4/CCND3 (setting [5]).
Take `CS(=O)(=O)N1CCC(Nc2cc3c(C4CCCC4)nccc3cn2)CC1` [Example 22, 5-cyclopentyl-N-(1-(methylsulfonyl)piperidin-4-yl)-2,6-naphthyridin-3-amine]: the IC50 is less than 25 nM on CDK6/CCND1 (setting [2]); less than 25 nM at CDK1/CCNB1 (<25 nM, read-out: CDK1/CCNB IC50 <25 nM); less than 25 nM at CDK2/CCNE1 (setting [4]); less than 25 nM on CDK4/CCND3 (setting [5]).
`CS(=O)(=O)c1ccc(Nc2cc3c(C4CCCC4)nccc3cn2)cc1` [Example 23, 5-cyclopentyl-N-(4-(methylsulfonyl)phenyl)-2,6-naphthyridin-3-amine]: the IC50 on CDK6/CCND1 (25-250 nM marked x, read-out: CDK6/CCND IC50 25-250 nM) was 25 to 250 nM; at CDK1/CCNB1 (setting [3]) it was 25 to 250 nM; on CDK2/CCNE1 (setting [4]), less than 25 nM; on CDK4/CCND3 (setting [6]), 25 to 250 nM.
On to `C=CS(=O)(=O)N1CCC(Nc2cc3c(-c4cccc(C#N)c4)nccc3cn2)CC1` [Example 24, 3-(7-((1-(vinylsulfonyl)piperidin-4-yl)amino)-2,6-naphthyridin-1-yl)benzonitrile], for which the IC50 was less than 25 nM at CDK6/CCND1 (setting [2]), greater than 250 nM on CDK1/CCNB1 (setting [1]), less than 25 nM on CDK2/CCNE1 (setting [4]) and 25 to 250 nM on CDK4/CCND3 (setting [6]).
Take `COCC1(COC)C(=O)Nc2cc(C#Cc3nccc4cnc(Nc5ccc(S(C)(=O)=O)cc5)cc34)ccc21` [Example 360, 3,3-bis(methoxymethyl)-6-((7-((4-(methylsulfonyl)phenyl)amino)-2,6-naphthyridin-1-yl)ethynyl)indolin-2-one]: the IC50 on CDK6/CCND1 (setting [7]) was greater than 250 nM; on CDK1/CCNB1 (setting [8]) it was 25 to 250 nM; on CDK2/CCNE1 (setting [9]) it was less than 25 nM; on CDK4/CCND3 (setting [10]) it was greater than 250 nM.
As for `CC1(C)C(=O)Nc2nc(C#Cc3nccc4cnc(Nc5ccc(S(C)(=O)=O)cc5)cc34)ccc21` [Example 374, 3,3-dimethyl-6-((7-((4-(methylsulfonyl)phenyl)amino)-2,6-naphthyridin-1-yl)ethynyl)-1,3-dihydro-2H-pyrrolo[2,3-b]pyridin-2-one], the IC50 at CDK6/CCND1 (setting [7]) is greater than 250 nM; at CDK1/CCNB1 (setting [8]) it was 25 to 250 nM; at CDK2/CCNE1 (setting [9]) it was less than 25 nM; at CDK4/CCND3 (setting [10]), greater than 250 nM.
With `CS(=O)(=O)c1ccc(Nc2cc3c(C#Cc4cc5c(cc4F)C4(CC4)C(=O)N5)nccc3cn2)cc1` [Example 378, 5′-fluoro-6′-((7-((4-(methylsulfonyl)phenyl)amino)-2,6-naphthyridin-1-yl)ethynyl)spiro[cyclopropane-1,3′-indolin]-2′-one], the IC50 is greater than 250 nM at CDK6/CCND1 (setting [7]), greater than 250 nM on CDK1/CCNB1 (setting [11]), less than 25 nM at CDK2/CCNE1 (setting [9]) and greater than 250 nM at CDK4/CCND3 (setting [10]).
For the compound `CCC1(CC)C(=O)Nc2cc(C#Cc3nccc4cnc(Nc5ccc(S(C)(=O)=O)cc5C)cc34)ccc21` [Example 395, 3,3-diethyl-6-((7-((2-methyl-4-(methylsulfonyl)phenyl)amino)-2,6-naphthyridin-1-yl)ethynyl)indolin-2-one], the IC50 was greater than 250 nM at CDK6/CCND1 (setting [7]), greater than 250 nM on CDK1/CCNB1 (setting [11]), less than 25 nM on CDK2/CCNE1 (setting [9]) and greater than 250 nM at CDK4/CCND3 (setting [10]).
For the compound `Nc1ncccc1C#Cc1nccc2cnc(Nc3ccc(S(=O)(=O)C4CCC4)cc3)cc12` [Example 398, 5-((2-aminopyridin-3-yl)ethynyl)-N-(4-(cyclobutylsulfonyl)phenyl)-2,6-naphthyridin-3-amine], the IC50 on CDK6/CCND1 (setting [7]) was greater than 250 nM; at CDK1/CCNB1 (setting [11]), greater than 250 nM; on CDK2/CCNE1 (x = IC50 25-250 nM, read-out: CDK2/CCNE IC50 (25-250 nM)), 25 to 250 nM; on CDK4/CCND3 (setting [10]) it was greater than 250 nM.
With `Cc1cc(Nc2cc3c(C#Cc4ccc5c(c4)NC(=O)C5(C)C)nccc3cn2)ccc1S(C)(=O)=O` [Example 406, 3,3-dimethyl-6-((7-((3-methyl-4-(methylsulfonyl)phenyl)amino)-2,6-naphthyridin-1-yl)ethynyl)indolin-2-one], the IC50 at CDK6/CCND1 (setting [7]) is greater than 250 nM; at CDK1/CCNB1 (setting [11]), greater than 250 nM; on CDK2/CCNE1 (setting [9]) it was less than 25 nM; on CDK4/CCND3 (setting [10]), greater than 250 nM.
Consider `CC(C)NS(=O)(=O)c1ccc(Nc2cc3c(C#Cc4cccnc4N)nccc3cn2)cc1` [Example 421, 4-((5-((2-aminopyridin-3-yl)ethynyl)-2,6-naphthyridin-3-yl)amino)-N-isopropylbenzenesulfonamide], for which the IC50 on CDK6/CCND1 (setting [7]) is greater than 250 nM; on CDK1/CCNB1 (setting [11]), greater than 250 nM; at CDK2/CCNE1 (setting [9]), less than 25 nM; at CDK4/CCND3 (setting [10]) it was greater than 250 nM.
With `CC1(C)C(=O)Nc2cc(C#Cc3nccc4cnc(Nc5ccc(S(C)(=O)=O)cc5)cc34)cnc21` [Example 436, 3,3-dimethyl-6-((7-((4-(methylsulfonyl)phenyl)amino)-2,6-naphthyridin-1-yl)ethynyl)-1,3-dihydro-2H-pyrrolo[3,2-b]pyridin-2-one], the IC50 on CDK6/CCND1 (setting [7]) is greater than 250 nM; on CDK1/CCNB1 (setting [11]) it was greater than 250 nM; on CDK2/CCNE1 (setting [9]) it was less than 25 nM; on CDK4/CCND3 (setting [10]) it was greater than 250 nM.
On to `CN1CCC(NS(=O)(=O)c2ccc(Nc3cc4c(C#Cc5ccc6c(c5)NC(=O)C6(C)C)nccc4cn3)cc2)CC1` [Example 441, 4-((5-((3,3-dimethyl-2-oxoindolin-6-yl)ethynyl)-2,6-naphthyridin-3-yl)amino)-N-(1-methylpiperidin-4-yl)benzenesulfonamide], for which the IC50 at CDK6/CCND1 (x = IC50 25-250 nM, read-out: CDK6/CCND IC50 (25-250 nM)) is 25 to 250 nM; on CDK1/CCNB1 (x = IC50 <25 nM, read-out: CDK1/CCNB IC50 (<25 nM)), less than 25 nM; on CDK2/CCNE1 (setting [9]) it was less than 25 nM; on CDK4/CCND3 (x = IC50 <25 nM, read-out: CDK4/CCND IC50 (<25 nM)), less than 25 nM.
In the case of `CC1(C)C(=O)Nc2cc(C#Cc3nccc4cnc(Nc5ccc(S(C)(=O)=O)cc5)cc34)c(F)cc21` [Example 446, 5-fluoro-3,3-dimethyl-6-((7-((4-(methylsulfonyl)phenyl)amino)-2,6-naphthyridin-1-yl)ethynyl)indolin-2-one], the IC50 was greater than 250 nM at CDK6/CCND1 (setting [7]); 25 to 250 nM on CDK1/CCNB1 (setting [8]); less than 25 nM at CDK2/CCNE1 (setting [9]); 25 to 250 nM on CDK4/CCND3 (x = IC50 25-250 nM, read-out: CDK4/CCND IC50 (25-250 nM)).
